Reference: PMC4533002 (2015)

Assays:
[1] = tested on: F-St1A/St2-AmpA split adenosine aptamer with primer regions (DNA, aptamer) ACCTGGGGGAGTA/CCAACCGTGAAAAGATGATGGTGCGGAGGAAGGTCTTAGGTCTATCCCGATGCC; test: fluorescence anisotropy; conditions: 50 mM NaCl, 10 mM MgCl2, 10 mM Tris pH 7.5, 25 °C, 10 nM F-St1A, 400 nM St2-AmpA
[2] = tested on: F-St1A/St2 split adenosine aptamer (initial sandwich) (DNA, aptamer) ACCTGGGGGAGTA/TGCGGAGGAAGGT; test: fluorescence anisotropy; conditions: 50 mM NaCl, 10 mM MgCl2, 10 mM Tris pH 7.5, 25 °C, 10 nM F-St1A, 400 nM St2
[3] = tested on: F-St1A/St2-AmpA-Rev primA duplex split adenosine aptamer (DNA, aptamer) ACCTGGGGGAGTA/CCAACCGTGAAAAGATGATGGTGCGGAGGAAGGTCTTAGGTCTATCCCGATGCC/GGCATCGGGATAGACCTAAG; test: fluorescence anisotropy; conditions: 50 mM NaCl, 10 mM MgCl2, 10 mM Tris pH 7.5, 25 °C, 10 nM F-St1A, 400 nM St2-AmpA-Rev primA duplex
[4] = tested on: St1-CholA/F-St2-AmpA/Rev primA (system A) (DNA, aptamer) ACCTGGGGGAGTA/CCAACCGTGAAAAGATGATGGTGCGGAGGAAGGTCTTAGGTCTATCCCGATGCC/GGCATCGGGATAGACCTAAG; test: capillary electrophoresis with LIF (MEKC); conditions: 50 mM NaCl, 10 mM MgCl2 (incubation); 25 mM NaCl (running buffer); Tris pH 7.5 (incubation), pH 7.8 (running), 0.5 mM Brij 35, 20 °C; 500-2000 μM adenosine
[5] = tested on: St1-CholB/St2-AmpB/Rev primB (system B) (DNA, aptamer) ATACCTGGGGGAGTATATAAT/CACACAGGAAACAGCGTATGACAATTATAGCGGAGGAAGGTATCCGTAGCCCTATCTGGATTGC/GCAATCCAGATAGGGCTACGG; test: capillary electrophoresis isolation with real-time PCR; conditions: 25 mM NaCl, 5 mM MgCl2; 20 mM Tris pH 7.5, 0.5 mM Brij 35, 20 °C; adenosine up to 50 μM

Nc1ncnc2c1ncn2[C@@H]1O[C@H](CO)[C@@H](O)[C@H]1O
apparent Kd [1]: > 500 µM
apparent Kd [2]: ~ 90 μM
apparent Kd [3]: ~ 90 μM
binding [4]: yes
binding [5]: yes
